{"source": "patent US7498406B2", "about": "“Substantially cell membrane impermeable compound and use thereof” (priority 1999, dated 2009)", "key": {"Human bone marrow cells": {"test_system": "Human bone marrow cells", "assay": "12 day human bone marrow culture assay, granulocyte/macrophage colonies", "assay_type": "cell-based", "conditions": "12 days, 0 to 100 μM", "protocol": "FIG. 20. Effect of GSAO on proliferation of bone marrow progenitor cells. Human bone marrow cells were incubated in semi-solid agar containing 20% BGS, 1 ng per mL IL-3 and 0 to 100 μM GSAA or GSAO for 12 days. Granulocyte/macrophage colonies of 40 or more cells were counted under an inverted microscope. The data points and errors represent the mean and SE of quadruplicate cultures.\nGSAO reduced the number of granulocyte/macrophage colonies in a 12 day human bone marrow culture assay with an IC50 of ˜30 μM (FIG. 20). […] Human bone marrow cells (˜5×10^5 cells per mL) were added to semi-solid agar in DMEM containing 20% BCS, […] IL-3 and 0 to 100 μM GSAA or GSAO. The cultures were incubated for 12 days at 37° C. and 5% CO2 and clusters of 40 or more cells were counted under an inverted microscope according to Metcalf (1977)."}, "Thioredoxin": {"target": "T1, Thioredoxin (Homo sapiens, UniProt P10599)", "T1 construct": "purchased American Diagnostica, Greenwich, Conn; host or cells: E. coli", "T1 sequence (P10599 whole entry, the tested form may be a part)": "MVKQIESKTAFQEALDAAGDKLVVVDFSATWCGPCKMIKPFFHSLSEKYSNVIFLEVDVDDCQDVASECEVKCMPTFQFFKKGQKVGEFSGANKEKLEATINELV", "assay": "Inhibition of thioredoxin-mediated reduction of 70 kDa fibronectin fragment", "assay_type": "biochemical", "conditions": "10 μM GSAO, 1 μM thioredoxin, 10 minutes", "protocol": "FIG. 13. Inhibition of thioredoxin by GSAO. Thioredoxin (1 μM) was incubated with GSAO (0, 1 or 10 μM) for 10 minutes at room temperature in 20 mM Hepes, 0.14 M NaCl, pH 7.4 buffer. The 70 kDa fibronectin fragment (10 μg per mL) was added and incubated for 5 minutes at room temperature. The reactions were labelled with MPB (100 μM) for 10 minutes at 37° C. The MPB was quenched with GSH (200 μM) for 10 minutes at 37° C. followed by iodoacetamide (400 μM) for 10 minutes at room temperature. The MPB-labelled 70 kDa fragment was resolved on 5-15% SDS-PAGE, transferred to PVDF membrane and the MPB detected by blotting with streptavidin peroxidase. The positions of Mr markers are shown at left.\nIt was observed that thioredoxin reduced one or more protein disulfide bonds in the 70 kDa N-terminal fragment of fibronectin."}, "BAE cells": {"test_system": "BAE cells", "assay": "Tritiated GSAO in cytosol (membrane permeability)", "assay_type": "in vitro ADME, bovine", "conditions": "50 μM GSAO, 1 hour", "protocol": "Human T cells (A3.01) or adherent BAE cells were incubated with complete medium containing 50 μM GSAO and ˜100,000 counts per, minute of tritiated GSAO for 1 or 72 hours. Tritiated GSAO was prepared exactly as described for GSAO except that glycine-2-^3H-glutathione (NEN, Boston, Mass.) was used in place of cold glutathione. The cells were washed and lysed by two cycles of freezing and thawing. The cytosolic constituents were collected by differential centrifugation (Ausbel et al., 2000) and the tritiated GSAO was measured. Only 0.5% of the total tritiated GSAO was found in the T cell cytosol and 0.04% in the BAE cytosol after 1 hour. Moreover, only 4.5% of the GSAO penetrated the T cell membrane after 72 hours of culture."}, "[1]": {"test_system": "primary HIV isolates (HN11, HN68 or HN70)", "assay": "Infection of PBMC's by primary HIV isolates, p24 antigen", "assay_type": "cell-based", "conditions": "10 μM, 7 days", "protocol": "PBMC's (1×10^6 per mL) were incubated with GSAA or GSAO (10 μM) for 30 minutes at 37° C. and then with primary HIV isolates (HN11, HN68 or HN70 at 50 TCID50 per 10^6 cells) for 2 hours at 37° C. Cells were washed and incubated in complete medium containing GSAA or GSAO (10 μM) at 5% CO2 and 37° C. for up to 7 days. At the indicated times the conditioned medium was collected and assayed for p24 antigen and cell number and cell viability was determined.\nThe primary HIV isolates, HN11, HN68 and HN70, were provided by Dr. Hassan Naif, Centre for Virus Research, Westmead Millennium Institute, NSW, Australia. […] The blood was diluted 1:2 with PBS, layered onto Ficoll-Hypaque (35 mL blood onto 15 mL Ficoll-Hypaque) in 50 mL Falcon tubes and centrifuged at 400 g for 20 minutes at 20° C. The PBMC's were collected and pelleted at 1200 rpm for 10 minutes to remove platelets, resuspended at 2×10^6 cells per mL in RPMI containing 20% horse serum (Gibco BRL, Gaithersburg, Md.), 10 μg per mL phytohemagglutinin-M (PHA-M, Boehringer Mannheim Biochemica, Mannheim, Germany) and […] interleukin-2 (Sigma, St. Louis, Mo.) and incubated for 2 days at 5% CO2 and 37° C., PBMC (1×10^6 per mL) were incubated with GSAO or GSAA (10 μM) for 30 minutes at 37° C. in serum-free media. Virus was added at 50 TCID50 per 10^6 cells for 2 hours at 37° C.. […]"}}, "data": [{"smiles": "N[C@@H](CCC(=O)N[C@@H](CSCC(=O)Nc1ccc([As](=O)(O)O)cc1)C(=O)NCC(=O)O)C(=O)O", "note": "[GSAA, 4-(N-(S-glutathionylacetyl)amino)phenylarsonic acid, reference compound]", "values": [{"measurement": "IC50 for reduction of the number of granulocyte/macrophage colonies", "setting": "Human bone marrow cells", "result": "no effect on colony numbers"}]}, {"smiles": "NC(CCC(=O)NC(CSCC(=O)Nc1ccc([As]=O)cc1)C(=O)NCC(=O)O)C(=O)O", "note": "(stereo not shown) [GSAO, 4-(N-(S-glutathionylacetyl)amino)-phenylarsenoxide]", "values": [{"measurement": "inhibition of thioredoxin activity", "setting": "Thioredoxin", "result": "completely inhibited"}, {"measurement": "total tritiated GSAO found in the cytosol", "setting": "BAE cells", "result": 0.04, "unit": "%"}, {"measurement": "infection of PBMC's by primary HIV isolates", "setting": "[1]", "result": "blocked infection"}]}]}
